Experimental data from ChEMBL document CHEMBL3864167, “Structure-Activity Relationship, Drug Metabolism and Pharmacokinetics Properties Optimization, and in Vivo Studies of New Brain Penetrant Triple T-Type Calcium Channel Blockers” (J Med Chem, 2016).
≈ marks a conversion by molar mass, not a printed value.

Key:
[1] = target: Voltage-dependent T-type calcium channel subunit alpha-1H (Homo sapiens, UniProt O95180); test: Channel blocking activity at recombinant human CaV 3.2 channel expressed in HEK293 cells assessed as inhibition of Ca2+ flux preincubated for 3 mins followed by CaCl2 addition by fluo-4 dye-based FLIPR assay; assay type: cell-based
[2] = target: Voltage-dependent T-type calcium channel subunit alpha-1I (Homo sapiens, UniProt Q9P0X4); test: Channel blocking activity at recombinant human CaV 3.3 channel expressed in HEK293 cells assessed as inhibition of Ca2+ flux preincubated for 3 mins followed by CaCl2 addition by fluo-4 dye-based FLIPR assay; assay type: cell-based
[3] = Solubility of the compound at pH 7; assay type: physicochemical; settings: buffer
[4] = Intrinsic clearance in human liver microsomes at 1 uM up to 15 mins in presence of NADPH by LC-MS-MS analysis; assay type: ADME; settings: read-out: CLH
[5] = target: Voltage-dependent T-type calcium channel subunit alpha-1G (Homo sapiens, UniProt O43497); test: Channel blocking activity at recombinant human CaV 3.1 channel expressed in HEK293 cells assessed as inhibition of Ca2+ flux preincubated for 3 mins followed by CaCl2 addition by fluo-4 dye-based FLIPR assay; assay type: cell-based
[6] = Intrinsic clearance in Wistar rat liver microsomes at 1 uM up to 15 mins in presence of NADPH by LC-MS-MS analysis; assay type: ADME; settings: read-out: CLH

Voltage-dependent T-type calcium channel subunit alpha-1I, sequence (Q9P0X4 whole entry): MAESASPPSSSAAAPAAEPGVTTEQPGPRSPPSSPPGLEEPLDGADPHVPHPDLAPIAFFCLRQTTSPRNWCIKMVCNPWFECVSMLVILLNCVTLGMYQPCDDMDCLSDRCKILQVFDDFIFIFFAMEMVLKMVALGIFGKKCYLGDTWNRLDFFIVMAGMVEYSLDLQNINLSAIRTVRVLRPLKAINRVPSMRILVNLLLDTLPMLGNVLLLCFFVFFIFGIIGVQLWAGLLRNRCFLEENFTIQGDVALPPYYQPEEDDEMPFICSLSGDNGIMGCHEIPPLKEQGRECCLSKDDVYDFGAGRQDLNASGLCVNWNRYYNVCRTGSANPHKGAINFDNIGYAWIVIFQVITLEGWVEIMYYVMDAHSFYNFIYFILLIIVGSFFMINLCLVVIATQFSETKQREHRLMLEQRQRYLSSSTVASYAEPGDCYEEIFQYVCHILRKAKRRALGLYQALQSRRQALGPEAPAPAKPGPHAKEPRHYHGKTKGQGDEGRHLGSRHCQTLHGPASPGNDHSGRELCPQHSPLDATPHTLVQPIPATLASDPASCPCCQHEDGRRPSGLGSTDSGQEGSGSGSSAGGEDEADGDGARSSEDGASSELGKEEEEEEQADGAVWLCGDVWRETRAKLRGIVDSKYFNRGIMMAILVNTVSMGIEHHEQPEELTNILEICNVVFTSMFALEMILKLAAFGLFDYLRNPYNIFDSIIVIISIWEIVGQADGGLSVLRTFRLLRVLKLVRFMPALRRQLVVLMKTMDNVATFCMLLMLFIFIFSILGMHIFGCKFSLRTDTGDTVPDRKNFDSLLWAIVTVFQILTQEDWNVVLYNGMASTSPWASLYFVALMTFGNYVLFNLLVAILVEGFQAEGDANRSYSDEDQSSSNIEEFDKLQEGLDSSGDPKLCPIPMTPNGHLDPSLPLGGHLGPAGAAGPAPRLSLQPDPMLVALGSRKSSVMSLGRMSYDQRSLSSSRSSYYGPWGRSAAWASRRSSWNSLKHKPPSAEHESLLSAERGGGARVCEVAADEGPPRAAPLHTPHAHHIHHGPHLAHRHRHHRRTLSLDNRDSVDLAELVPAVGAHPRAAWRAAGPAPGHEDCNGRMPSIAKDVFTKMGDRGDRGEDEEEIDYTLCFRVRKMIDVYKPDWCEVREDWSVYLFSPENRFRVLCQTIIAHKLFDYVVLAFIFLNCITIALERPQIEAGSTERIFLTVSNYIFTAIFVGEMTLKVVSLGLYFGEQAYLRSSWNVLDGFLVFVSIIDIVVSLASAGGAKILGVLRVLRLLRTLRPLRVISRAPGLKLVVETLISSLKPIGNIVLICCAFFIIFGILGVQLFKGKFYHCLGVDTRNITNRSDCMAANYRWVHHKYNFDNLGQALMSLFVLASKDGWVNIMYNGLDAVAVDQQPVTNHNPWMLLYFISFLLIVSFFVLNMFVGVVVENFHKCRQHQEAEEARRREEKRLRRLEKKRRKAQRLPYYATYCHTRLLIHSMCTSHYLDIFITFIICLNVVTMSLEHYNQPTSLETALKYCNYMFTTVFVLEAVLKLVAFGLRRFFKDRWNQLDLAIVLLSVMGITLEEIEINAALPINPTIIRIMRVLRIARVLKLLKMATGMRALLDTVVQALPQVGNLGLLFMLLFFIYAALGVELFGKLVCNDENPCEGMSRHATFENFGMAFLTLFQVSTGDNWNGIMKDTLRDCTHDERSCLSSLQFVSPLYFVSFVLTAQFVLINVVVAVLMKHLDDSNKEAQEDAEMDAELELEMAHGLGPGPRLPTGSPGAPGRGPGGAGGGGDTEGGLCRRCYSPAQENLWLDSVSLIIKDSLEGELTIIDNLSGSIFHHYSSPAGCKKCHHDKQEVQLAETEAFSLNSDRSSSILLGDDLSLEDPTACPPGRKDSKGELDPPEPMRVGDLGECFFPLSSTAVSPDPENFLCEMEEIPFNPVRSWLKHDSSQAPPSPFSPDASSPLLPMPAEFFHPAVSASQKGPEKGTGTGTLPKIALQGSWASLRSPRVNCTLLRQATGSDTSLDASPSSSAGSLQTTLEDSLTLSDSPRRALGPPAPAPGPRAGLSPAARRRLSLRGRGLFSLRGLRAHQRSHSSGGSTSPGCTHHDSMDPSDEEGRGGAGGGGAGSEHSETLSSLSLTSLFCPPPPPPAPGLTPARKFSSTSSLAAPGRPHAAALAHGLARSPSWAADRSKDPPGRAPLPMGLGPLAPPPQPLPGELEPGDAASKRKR
Voltage-dependent T-type calcium channel subunit alpha-1G, sequence (O43497 whole entry): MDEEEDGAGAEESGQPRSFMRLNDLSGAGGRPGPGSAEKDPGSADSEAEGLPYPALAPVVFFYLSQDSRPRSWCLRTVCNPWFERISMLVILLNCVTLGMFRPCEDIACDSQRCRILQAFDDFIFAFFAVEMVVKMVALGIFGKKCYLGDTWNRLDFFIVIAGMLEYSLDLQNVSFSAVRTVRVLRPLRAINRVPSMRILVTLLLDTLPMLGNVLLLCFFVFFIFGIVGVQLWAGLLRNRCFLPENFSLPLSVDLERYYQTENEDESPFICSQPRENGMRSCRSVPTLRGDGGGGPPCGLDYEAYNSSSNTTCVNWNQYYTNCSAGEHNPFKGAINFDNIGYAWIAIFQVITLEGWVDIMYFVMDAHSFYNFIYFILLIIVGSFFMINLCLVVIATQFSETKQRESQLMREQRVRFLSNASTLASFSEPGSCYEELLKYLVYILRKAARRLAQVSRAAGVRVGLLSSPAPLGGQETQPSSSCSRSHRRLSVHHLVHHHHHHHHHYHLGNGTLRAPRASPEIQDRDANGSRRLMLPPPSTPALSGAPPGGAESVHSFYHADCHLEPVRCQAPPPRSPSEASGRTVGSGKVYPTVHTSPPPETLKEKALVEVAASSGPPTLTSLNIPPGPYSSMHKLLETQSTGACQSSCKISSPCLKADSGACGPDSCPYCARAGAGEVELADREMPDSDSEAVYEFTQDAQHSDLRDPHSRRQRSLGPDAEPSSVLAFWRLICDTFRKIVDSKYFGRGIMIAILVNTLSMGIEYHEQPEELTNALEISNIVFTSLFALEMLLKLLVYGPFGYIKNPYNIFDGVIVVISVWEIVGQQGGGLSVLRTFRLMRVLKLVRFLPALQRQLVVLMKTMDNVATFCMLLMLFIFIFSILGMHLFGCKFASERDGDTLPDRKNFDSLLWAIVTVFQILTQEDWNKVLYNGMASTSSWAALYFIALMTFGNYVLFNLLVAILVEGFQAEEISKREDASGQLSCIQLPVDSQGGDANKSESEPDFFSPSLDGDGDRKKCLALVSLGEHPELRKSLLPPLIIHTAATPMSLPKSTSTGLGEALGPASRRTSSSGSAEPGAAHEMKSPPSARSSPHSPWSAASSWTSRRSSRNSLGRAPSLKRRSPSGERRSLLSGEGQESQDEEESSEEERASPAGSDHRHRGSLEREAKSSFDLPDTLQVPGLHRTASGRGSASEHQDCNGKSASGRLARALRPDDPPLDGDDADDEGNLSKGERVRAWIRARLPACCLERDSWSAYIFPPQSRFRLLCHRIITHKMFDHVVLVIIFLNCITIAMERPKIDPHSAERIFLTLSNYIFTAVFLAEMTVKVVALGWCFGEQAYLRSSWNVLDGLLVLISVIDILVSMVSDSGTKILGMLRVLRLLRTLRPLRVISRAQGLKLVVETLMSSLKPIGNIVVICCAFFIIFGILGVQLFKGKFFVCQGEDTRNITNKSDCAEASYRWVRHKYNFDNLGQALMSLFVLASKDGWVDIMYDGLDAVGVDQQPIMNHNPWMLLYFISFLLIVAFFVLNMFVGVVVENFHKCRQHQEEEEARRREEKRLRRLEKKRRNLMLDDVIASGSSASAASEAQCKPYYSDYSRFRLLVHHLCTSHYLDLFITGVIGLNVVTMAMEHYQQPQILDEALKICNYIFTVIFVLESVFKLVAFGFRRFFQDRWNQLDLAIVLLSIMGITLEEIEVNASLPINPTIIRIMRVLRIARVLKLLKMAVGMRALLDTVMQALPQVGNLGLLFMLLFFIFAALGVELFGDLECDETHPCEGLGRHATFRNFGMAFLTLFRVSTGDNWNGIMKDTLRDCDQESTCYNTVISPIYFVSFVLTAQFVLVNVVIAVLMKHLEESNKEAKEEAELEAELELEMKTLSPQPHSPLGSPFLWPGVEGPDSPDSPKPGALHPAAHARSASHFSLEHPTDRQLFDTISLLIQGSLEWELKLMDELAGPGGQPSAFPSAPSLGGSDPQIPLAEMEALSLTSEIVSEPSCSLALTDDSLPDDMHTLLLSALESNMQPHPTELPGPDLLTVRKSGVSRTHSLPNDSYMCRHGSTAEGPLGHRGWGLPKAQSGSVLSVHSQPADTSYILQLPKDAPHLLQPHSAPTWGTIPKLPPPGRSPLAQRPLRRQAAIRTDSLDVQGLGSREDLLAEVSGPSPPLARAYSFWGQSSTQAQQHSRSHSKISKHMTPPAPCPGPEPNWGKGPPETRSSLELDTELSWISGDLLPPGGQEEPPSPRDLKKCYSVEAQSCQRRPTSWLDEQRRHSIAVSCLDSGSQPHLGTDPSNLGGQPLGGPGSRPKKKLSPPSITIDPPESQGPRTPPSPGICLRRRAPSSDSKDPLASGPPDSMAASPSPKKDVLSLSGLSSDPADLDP

SMILES: C[C@@H]1CN(CC2CCCCO2)c2ccccc2[C@H](C)N1C(=O)Nc1cccnc1 (mixture of isomers)
- IC50 [1]: 2670 nM
- IC50 [2]: 243 nM
- solubility [3]: 248 µg/mL
- microsomal CLint at 1 µM [4]: 720 µL/min/mg
- IC50 [5]: 875 nM

SMILES: C[C@@H]1CN(Cc2ccccc2)c2ccccc2[C@H](C)N1C(=O)Nc1cccnc1 (racemic)
- IC50 [1]: 61 nM
- IC50 [2]: 14 nM
- solubility [3]: 21 to 39 µg/mL (≈ 54.3 to 101 µM)
- microsomal CLint at 1 µM [4]: > 1250 µL/min/mg
- IC50 [5]: 42 nM

SMILES: Cc1ccc2c(n1)N(Cc1ccccc1)C[C@@H](C)N(C(=O)NCc1ccccc1)[C@H]2C (racemic)
- IC50 [1]: 28 nM
- IC50 [2]: 33 nM
- microsomal CLint at 1 µM [4]: 1240 µL/min/mg
- IC50 [5]: 18 nM

SMILES: C[C@@H]1CN(Cc2ccccc2)c2ccccc2[C@H](C)N1C(=O)NC1COC1 (racemic)
- IC50 [1]: 61 nM
- IC50 [2]: 12 nM
- solubility [3]: 148 µg/mL (≈ 405 µM)
- microsomal CLint at 1 µM [4]: 539 µL/min/mg
- IC50 [5]: 26 nM

SMILES: C[C@@H]1CN(Cc2cnc(C(F)(F)F)s2)c2ccccc2[C@H](C)N1C(=O)CCc1cccnc1 (racemic)
- IC50 [1]: 30 nM
- IC50 [2]: 13 nM
- microsomal CLint at 1 µM [4]: 332 µL/min/mg
- IC50 [5]: 40 nM

SMILES: C[C@@H]1CN(Cc2ccccc2)c2nc(F)ccc2[C@H](C)N1C(=O)NCc1ccccc1 (racemic)
- IC50 [1]: 6 nM
- IC50 [2]: 4 nM
- microsomal CLint at 1 µM [4]: > 1250 µL/min/mg
- IC50 [5]: 7 nM

SMILES: C[C@@H]1CN(Cc2ccccc2)c2c(F)cccc2[C@H](C)N1C(=O)Nc1cccnc1 (racemic)
- IC50 [1]: 205 nM
- IC50 [2]: 17 nM
- microsomal CLint at 1 µM [4]: 720 µL/min/mg
- IC50 [5]: 178 nM

SMILES: C[C@@H]1CN(Cc2ccccc2)c2cccc(F)c2[C@H](C)N1C(=O)CCc1cccnc1 (racemic)
- IC50 [1]: 52 nM
- IC50 [2]: 17 nM
- microsomal CLint at 1 µM [4]: 562 µL/min/mg
- IC50 [5]: 47 nM

SMILES: C[C@@H]1CN(Cc2ccccc2)c2ccc(F)cc2[C@H](C)N1C(=O)Nc1cccnc1 (racemic)
- IC50 [1]: 112 nM
- IC50 [2]: 8 nM
- microsomal CLint at 1 µM [4]: > 1250 µL/min/mg
- IC50 [5]: 68 nM

SMILES: C[C@@H]1CN(Cc2ccccc2)c2nc(Cl)ccc2[C@H](C)N1C(=O)NCc1ccccc1 (racemic)
- IC50 [1]: 36 nM
- IC50 [2]: 22 nM
- microsomal CLint at 1 µM [4]: 1000 µL/min/mg
- IC50 [5]: 16 nM

SMILES: CC(C)CCN1C[C@@H](C)N(C(=O)CCc2cccnc2)[C@@H](C)c2ccccc21 (racemic)
- IC50 [1]: 62 nM
- IC50 [2]: 13 nM
- microsomal CLint at 1 µM [4]: 412 µL/min/mg
- IC50 [5]: 29 nM

SMILES: C[C@@H]1CN(Cc2ccccc2)c2nc(C(F)(F)F)ccc2[C@H](C)N1C(=O)NCc1ccccc1 (racemic)
- IC50 [1]: 104 nM
- IC50 [2]: 281 nM
- microsomal CLint at 1 µM [4]: 531 µL/min/mg
- IC50 [5]: 57 nM

SMILES: C[C@@H]1CN(Cc2ccccc2)c2cnccc2[C@H](C)N1C(=O)Nc1cccnc1 (racemic)
- IC50 [1]: 860 nM
- microsomal CLint at 1 µM [6]: 562 µL/min/mg
- IC50 [2]: 306 nM
- microsomal CLint at 1 µM [4]: 93 µL/min/mg
- IC50 [5]: 360 nM

SMILES: [2H]C([2H])(c1ccccc1)N1C[C@@H](C)N(C(=O)Nc2cccnc2)[C@@H](C)c2ccncc21 (racemic)
- IC50 [1]: 815 nM
- microsomal CLint at 1 µM [6]: 855 µL/min/mg
- IC50 [2]: 148 nM
- microsomal CLint at 1 µM [4]: 59 µL/min/mg
- IC50 [5]: 441 nM

SMILES: [2H]C([2H])(c1ccccc1)N1C[C@@H](C)N(C(=O)Nc2cccnc2)[C@@H](C)c2ccccc21 (racemic)
- IC50 [1]: 25 nM
- IC50 [2]: 4 nM
- microsomal CLint at 1 µM [4]: 1110 µL/min/mg
- IC50 [5]: 27 nM

SMILES: CC(C)CCN1C[C@@H](C)N(C(=O)CCc2cccnc2)[C@@H](C)c2c(F)cccc21 (racemic)
- IC50 [1]: 66 nM
- IC50 [2]: 52 nM
- microsomal CLint at 1 µM [4]: 357 µL/min/mg
- IC50 [5]: 45 nM

SMILES: COc1ccc2c(c1)[C@H](C)N(C(=O)Nc1cccnc1)[C@H](C)CN2Cc1ccccc1 (racemic)
- IC50 [1]: 530 nM
- IC50 [2]: 100 nM
- microsomal CLint at 1 µM [4]: 521 µL/min/mg
- IC50 [5]: 390 nM

SMILES: C[C@@H]1CN(Cc2ccccc2)c2ncc(F)cc2[C@H](C)N1C(=O)NCc1ccccc1 (racemic)
- IC50 [1]: 95 nM
- IC50 [2]: 15 nM
- microsomal CLint at 1 µM [4]: 837 µL/min/mg
- IC50 [5]: 65 nM

SMILES: C[C@@H]1CN(Cc2ccc(C(F)(F)F)o2)c2cnccc2[C@H](C)N1C(=O)NCc1ccccc1 (racemic)
- IC50 [1]: 44 nM
- microsomal CLint at 1 µM [6]: 1180 µL/min/mg
- IC50 [2]: 10 nM
- microsomal CLint at 1 µM [4]: 247 µL/min/mg
- IC50 [5]: 37 nM

SMILES: C[C@@H]1CN(Cc2ccccc2)c2cccc(F)c2[C@H](C)N1C(=O)NC1COC1 (racemic)
- IC50 [1]: 59 nM
- IC50 [2]: 13 nM
- microsomal CLint at 1 µM [4]: 375 µL/min/mg
- IC50 [5]: 40 nM

SMILES: C[C@@H]1CN(Cc2cnc(C(F)(F)F)s2)c2cccc(F)c2[C@H](C)N1C(=O)CCc1cccnc1 (racemic)
- IC50 [1]: 93 nM
- IC50 [2]: 20 nM
- microsomal CLint at 1 µM [4]: 193 µL/min/mg
- IC50 [5]: 115 nM
